Values quoted from earlier work, collected in US9365837B2, “Peptide inhibitors of protein kinase C” (The Board of Trustees of the Leland Stanford Junior …, priority 2002, dated 2016).

Test system: Sprague-Dawley rats
Settings: previously identified active in the assay

Substance: EAIVKQ (fragment derived from SEQ ID NO32) [SEQ ID NO:37, positive control εPKC antagonist, excluded from the peptides of the invention]
- activity in the capsaicin assay (positive control): active
